Measured values from US11046694B2, “Compounds and methods for treating bacterial infections” (Entasis Therapeutics, Inc., priority 2018, dated 2021).
In brackets after ≈: the same amount, converted by molar mass. Where a name gives a salt, the structure may show the parent alone.

How the values were obtained:
A. baumannii (ARC3495) = experiment: MIC against A. baumannii; conditions: for MIC: Acinetobacter baumannii, read-out: A. baumannii MIC (ARC3495) (mg/L)
E. coli (ATCC25922) = experiment: MIC against E. coli; conditions: for MIC: Escherichia coli, ATCC25922, read-out: E. coli MIC (ATCC25922) (mg/L)
P. aeruginosa PBP1a = P. aeruginosa PBP1a (Pseudomonas aeruginosa, UniProt Q07806); assay type: biochemical; conditions: P. aeruginosa PBP1a 60 nM, BOCILLIN FL 30 nM, pH 7.0
P. aeruginosa PBP1a, sequence (Q07806 whole entry): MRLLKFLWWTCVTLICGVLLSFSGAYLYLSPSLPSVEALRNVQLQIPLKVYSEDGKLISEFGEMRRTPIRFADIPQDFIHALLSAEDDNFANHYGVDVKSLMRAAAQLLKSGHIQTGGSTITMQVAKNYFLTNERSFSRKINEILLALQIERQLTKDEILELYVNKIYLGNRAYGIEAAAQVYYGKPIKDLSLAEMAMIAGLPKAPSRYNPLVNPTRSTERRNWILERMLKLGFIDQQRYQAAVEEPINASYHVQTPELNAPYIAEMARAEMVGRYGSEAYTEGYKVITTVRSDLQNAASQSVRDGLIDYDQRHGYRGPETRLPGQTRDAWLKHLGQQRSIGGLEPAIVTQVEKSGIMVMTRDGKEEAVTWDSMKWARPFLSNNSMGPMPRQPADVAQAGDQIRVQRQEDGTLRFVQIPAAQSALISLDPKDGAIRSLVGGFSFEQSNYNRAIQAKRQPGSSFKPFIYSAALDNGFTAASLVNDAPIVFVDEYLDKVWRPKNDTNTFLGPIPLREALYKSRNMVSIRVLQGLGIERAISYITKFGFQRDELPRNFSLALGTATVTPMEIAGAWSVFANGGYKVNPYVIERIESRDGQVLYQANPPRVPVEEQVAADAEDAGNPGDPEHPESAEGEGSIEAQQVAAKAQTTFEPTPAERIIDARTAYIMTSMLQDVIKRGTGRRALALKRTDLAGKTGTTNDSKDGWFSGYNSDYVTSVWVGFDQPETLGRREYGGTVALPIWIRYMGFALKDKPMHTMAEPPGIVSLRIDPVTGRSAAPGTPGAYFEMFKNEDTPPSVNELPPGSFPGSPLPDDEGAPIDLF

[1] = tested on: K. pneumoniae (ATCC700603); experiment: MIC against K. pneumoniae; conditions: for MIC: Klebsiella pneumoniae, ATCC700603, read-out: K. pneumoniae MIC (ATCC700603)
P. aeruginosa WT (PAO1) = experiment: MIC, CLSI broth microdilution, P. aeruginosa; assay type: cell-based; conditions: CLSI broth microdilution; for MIC: Pseudomonas aeruginosa, PAO1, read-out: P. aeruginosa WT (PAO1) MIC
P. aeruginosa PBP3 = P. aeruginosa PBP3 (Pseudomonas aeruginosa, UniProt G3XD46); assay type: biochemical; conditions: P. aeruginosa PBP3 60 nM, BOCILLIN FL 30 nM, pH 7.0
P. aeruginosa PBP3, sequence (G3XD46 whole entry): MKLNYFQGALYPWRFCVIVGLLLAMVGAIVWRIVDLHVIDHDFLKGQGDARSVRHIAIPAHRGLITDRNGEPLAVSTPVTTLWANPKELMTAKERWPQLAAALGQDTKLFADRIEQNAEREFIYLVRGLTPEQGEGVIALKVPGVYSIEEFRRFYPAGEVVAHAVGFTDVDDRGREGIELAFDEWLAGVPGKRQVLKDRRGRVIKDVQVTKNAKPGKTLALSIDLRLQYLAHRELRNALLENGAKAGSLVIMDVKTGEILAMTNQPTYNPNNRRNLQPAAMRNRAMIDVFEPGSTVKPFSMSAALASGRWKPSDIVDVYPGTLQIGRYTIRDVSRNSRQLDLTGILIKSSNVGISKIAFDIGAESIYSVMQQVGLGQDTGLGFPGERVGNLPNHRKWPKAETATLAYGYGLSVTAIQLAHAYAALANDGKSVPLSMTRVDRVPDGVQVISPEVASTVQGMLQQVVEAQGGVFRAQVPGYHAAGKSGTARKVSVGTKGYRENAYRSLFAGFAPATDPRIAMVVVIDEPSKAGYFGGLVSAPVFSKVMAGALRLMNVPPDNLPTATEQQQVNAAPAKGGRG

P. aeruginosa PBP2 = biological target: T1, P. aeruginosa PBP2 (Pseudomonas aeruginosa, UniProt Q9X6V3); assay type: biochemical; conditions: P. aeruginosa PBP2 300 nM, BOCILLIN FL 30 nM, pH 6.2
T1 sequence (Q9X6V3 1-646): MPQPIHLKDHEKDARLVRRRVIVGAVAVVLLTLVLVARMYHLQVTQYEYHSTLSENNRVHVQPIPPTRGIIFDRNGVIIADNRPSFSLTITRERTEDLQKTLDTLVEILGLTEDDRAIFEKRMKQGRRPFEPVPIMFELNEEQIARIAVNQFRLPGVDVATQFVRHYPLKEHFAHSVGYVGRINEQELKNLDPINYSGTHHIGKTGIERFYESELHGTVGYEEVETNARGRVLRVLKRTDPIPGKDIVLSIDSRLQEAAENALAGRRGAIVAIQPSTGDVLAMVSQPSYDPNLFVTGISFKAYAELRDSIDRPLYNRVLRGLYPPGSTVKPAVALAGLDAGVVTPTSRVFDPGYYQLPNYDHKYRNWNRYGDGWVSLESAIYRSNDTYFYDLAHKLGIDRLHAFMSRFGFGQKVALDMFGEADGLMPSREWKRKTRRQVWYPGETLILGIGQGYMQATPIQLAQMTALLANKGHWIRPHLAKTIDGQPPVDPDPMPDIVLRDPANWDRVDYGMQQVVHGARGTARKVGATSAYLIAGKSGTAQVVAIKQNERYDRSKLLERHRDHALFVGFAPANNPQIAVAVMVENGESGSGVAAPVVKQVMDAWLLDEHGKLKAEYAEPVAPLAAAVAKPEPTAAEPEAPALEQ

SMILES | MIC (A. baumannii (ARC3495)) | MIC (E. coli (ATCC25922)) | PBP1a acylation rate, k(on) (M^−1 · s^−1) (P. aeruginosa PBP1a) | MIC [1] | MIC (P. aeruginosa WT (PAO1)) | PBP3 acylation rate, k(on) (M^−1 · s^−1) (P. aeruginosa PBP3) | PBP2 acylation rate, k(on) (M^−1 · s^−1) (P. aeruginosa PBP2) | A. baumannii MIC (ARC3495) (mg/L) (A. baumannii (ARC3495)) | E. coli MIC (ATCC25922) (mg/L) (E. coli (ATCC25922)) | K. pneumoniae MIC (ATCC700603) [1] | P. aeruginosa WT (PAO1) MIC (mg/L) (P. aeruginosa WT (PAO1))
CN/C(=N\OC(N)=O)[C@@H]1c2c(cnn2C)[C@@H]2CN1C(=O)N2OS(=O)(=O)O (racemic) [Example 14, pyridium (4R,8S)-8-((Z)—N′-(carbamoyloxy)-N-methylcarbamimidoyl)-1-methyl-6-oxo-4,8-dihydro-1H-4,7-methanopyrazolo[3,4-e][1,3]diazepin-5(6H)-yl hydrogen sulfate] | 8 to 16 mg/L | < 8 mg/L | ** (** represents a k(on) of 100 to 10,000 M^−1 · s^−1) | < 8 µg/mL | < 8 µg/mL | *** (*** represents a k(on) > 10,000 M^−1 · s^−1) | * (* represents a k(on) < 100 M^−1 · s^−1) |  |  |  | 
CN(C)/C(=N\O)[C@@H]1c2c(cnn2C)[C@@H]2CN1C(=O)N2OS(=O)(=O)O [Example 2, (4R,8S)-8-((Z)—N′-hydroxy-N,N-dimethylcarbamimidoyl)-1-methyl-6-oxo-4,8-dihydro-1H-4,7-methanopyrazolo[3,4-e][1,3]diazepin-5(6H)-yl hydrogen sulfate] | 8 to 16 mg/L | 8 to 16 mg/L | ** (** represents a k(on) of 100 to 10,000 M^−1 · s^−1) | 8 to 16 µg/mL | > 16 µg/mL | *** (*** represents a k(on) > 10,000 M^−1 · s^−1) | * (* represents a k(on) < 100 M^−1 · s^−1) |  |  |  | 
Cn1ncc2c1[C@@H](c1noc(=O)n1C)N1C[C@@H]2N(OS(=O)(=O)O)C1=O [Example 66, ((4R,8S)-1-methyl-8-(4-methyl-5-oxo-4,5-dihydro-1,2,4-oxadiazol-3-yl)-6-oxo-4,8-dihydro-1H-4,7-methanopyrazolo[3,4-e][1,3]diazepin-5(6H)-yl hydrogen sulfate] | > 16 mg/L | < 8 mg/L | ** (** represents a k(on) of 100 to 10,000 M^−1 · s^−1) | > 16 µg/mL | > 16 µg/mL | ** (** represents a k(on) of 100 to 10,000 M^−1 · s^−1) | * (* represents a k(on) < 100 M^−1 · s^−1) |  |  |  | 
CN/C(=N\O)[C@@H]1c2c(cnn2CCCCN)[C@@H]2CN1C(=O)N2OS(=O)(=O)O [Example 68, (4R,8S)-1-(4-aminobutyl)-8-((Z)—N′-hydroxy-N-methylcarbamimidoyl)-6-oxo-4,8-dihydro-1H-4,7-methanopyrazolo[3,4-e][1,3]diazepin-5(6H)-yl hydrogen sulfate] | 8 to 16 mg/L | 8 to 16 mg/L | * (* represents a k(on) < 100 M^−1 · s^−1) | > 16 µg/mL | < 8 µg/mL | ** (** represents a k(on) of 100 to 10,000 M^−1 · s^−1) | * (* represents a k(on) < 100 M^−1 · s^−1) |  |  |  | 
Cn1ncc2c1[C@@H](/C(=N/O)C(N)=O)N1C[C@@H]2N(OS(=O)(=O)O)C1=O [Example 67, (4R,8S)-8-((Z)-2-amino-1-(hydroxyimino)-2-oxoethyl-1-methyl-6-oxo-4,8-dihydro-1H-4,7-methanopyrazolo[3,4-e][1,3]diazepin-5(6H)-yl hydrogen sulfate] | > 16 mg/L | < 8 mg/L | * (* represents a k(on) < 100 M^−1 · s^−1) | > 16 µg/mL | > 16 µg/mL | ** (** represents a k(on) of 100 to 10,000 M^−1 · s^−1) | * (* represents a k(on) < 100 M^−1 · s^−1) |  |  |  | 
Cn1ncc2c1[C@@H](/C(=N/O)NCCCCN)N1C[C@@H]2N(OS(=O)(=O)O)C1=O (racemic) [Example 8] | > 16 mg/L | < 8 mg/L | * (* represents a k(on) < 100 M^−1 · s^−1) | > 16 µg/mL | > 16 µg/mL | * (* represents a k(on) < 100 M^−1 · s^−1) | * (* represents a k(on) < 100 M^−1 · s^−1) |  |  |  | 
CN/C(=N\OC)[C@@H]1c2c(cnn2C)[C@@H]2CN1C(=O)N2OS(=O)(=O)O [Example 4, (4R,8S)-8-((Z)—N′-methoxy-N-methylcarbamimidoyl)-1-methyl-6-oxo-4,8-dihydro-1H-4,7-methanopyrazolo[3,4-e][1,3]diazepin-5(6H)-yl hydrogen sulfate] | > 16 mg/L | < 8 mg/L | ** (** represents a k(on) of 100 to 10,000 M^−1 · s^−1) | > 16 µg/mL | > 16 µg/mL | *** (*** represents a k(on) > 10,000 M^−1 · s^−1) | * (* represents a k(on) < 100 M^−1 · s^−1) |  |  |  | 
CN/C(=N\O)[C@@H]1c2c(cnn2C)[C@@H]2CN1C(=O)N2OS(=O)(=O)O (stereo in doubt) [Example 1, sodium (4R,8S)-8-((Z)—N′-hydroxy-N-methylcarbamimidoyl)-1-methyl-6-oxo-4,8-dihydro-1H-4,7-methanopyrazolo[3,4-e][1,3]diazepin-5(6H)-yl sulfate] | < 8 mg/L | < 8 mg/L | ** (** represents a k(on) of 100 to 10,000 M^−1 · s^−1) | < 8 µg/mL | < 8 µg/mL | *** (*** represents a k(on) > 10,000 M^−1 · s^−1) | * (* represents a k(on) < 100 M^−1 · s^−1) |  |  |  | 
Cn1ncc2c1[C@@H](C1=NOC(Cc3ccccc3)C1)N1C[C@@H]2N(OS(=O)(=O)O)C1=O (mixture of isomers) [Example 37] |  |  | * (* represents a k(on) < 100 M^−1 · s^−1) |  |  | ** (** represents a k(on) of 100 to 10,000 M^−1 · s^−1) | * (* represents a k(on) < 100 M^−1 · s^−1) | * (* represents an MIC > 16 mg/L) | *** (*** represents an MIC < 8 mg/L) | * (* represents an MIC > 16 mg/L) | * (* represents an MIC > 16 mg/L)
CON/C(=N\O)[C@@H]1c2c(cnn2C)[C@@H]2CN1C(=O)N2OS(=O)(=O)O (racemic) [Example 11] | 8 to 16 mg/L (≈ 22.1 to 44.2 µM) | < 8 mg/L | ** (** represents a k(on) of 100 to 10,000 M^−1 · s^−1) | < 8 µg/mL | 8 to 16 µg/mL (≈ 22.1 to 44.2 µM) | *** (*** represents a k(on) > 10,000 M^−1 · s^−1) | * (* represents a k(on) < 100 M^−1 · s^−1) |  |  |  | 
CN(O)/C(=N\O)[C@@H]1c2c(cnn2C)[C@@H]2CN1C(=O)N2OS(=O)(=O)O (racemic) [Example 9] | 8 to 16 mg/L (≈ 22.1 to 44.2 µM) | < 8 mg/L | ** (** represents a k(on) of 100 to 10,000 M^−1 · s^−1) | 8 to 16 µg/mL (≈ 22.1 to 44.2 µM) | < 8 µg/mL | ** (** represents a k(on) of 100 to 10,000 M^−1 · s^−1) | * (* represents a k(on) < 100 M^−1 · s^−1) |  |  |  | 
CN/C(=N\OCCN)[C@@H]1c2c(cnn2C)[C@@H]2CN1C(=O)N2OS(=O)(=O)O (racemic) [Example 7] | > 16 mg/L | 8 to 16 mg/L (≈ 20.5 to 41.1 µM) | * (* represents a k(on) < 100 M^−1 · s^−1) | 8 to 16 µg/mL (≈ 20.5 to 41.1 µM) | 8 to 16 µg/mL (≈ 20.5 to 41.1 µM) | ** (** represents a k(on) of 100 to 10,000 M^−1 · s^−1) | * (* represents a k(on) < 100 M^−1 · s^−1) |  |  |  | 
